We go through 33 molecules from US11691972B2, “Compounds for targeted degradation of BRD9” (C4 Therapeutics, Inc., priority 2020, dated 2023).

SMILES strings stand for the structures. Where two headings read alike, the source gives them in different places. Some results are limits rather than exact numbers.

In this assay the target is T1, BRD9 (Homo sapiens, UniProt Q9H8M2).
T1 sequence (Q9H8M2 1-597): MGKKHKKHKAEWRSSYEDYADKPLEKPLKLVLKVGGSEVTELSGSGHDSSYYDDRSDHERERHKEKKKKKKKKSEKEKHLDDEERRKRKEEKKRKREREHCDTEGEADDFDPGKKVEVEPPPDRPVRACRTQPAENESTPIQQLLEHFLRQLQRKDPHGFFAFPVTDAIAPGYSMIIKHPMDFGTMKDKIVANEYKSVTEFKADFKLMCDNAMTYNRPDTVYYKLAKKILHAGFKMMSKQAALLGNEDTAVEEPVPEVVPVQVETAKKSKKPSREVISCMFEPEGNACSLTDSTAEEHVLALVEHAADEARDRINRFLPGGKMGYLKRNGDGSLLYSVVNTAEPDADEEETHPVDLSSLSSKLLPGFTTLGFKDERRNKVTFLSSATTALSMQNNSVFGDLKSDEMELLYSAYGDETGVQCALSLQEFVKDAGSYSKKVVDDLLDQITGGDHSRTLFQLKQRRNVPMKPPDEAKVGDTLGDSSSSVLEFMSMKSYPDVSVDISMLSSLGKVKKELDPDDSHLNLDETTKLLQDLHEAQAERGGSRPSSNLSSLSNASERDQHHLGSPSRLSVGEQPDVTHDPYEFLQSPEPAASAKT
The assay is described as follows: HiBiT BRD9 degradation assay in 293T.166 (BRD9-HiBiT) cells. The class given is cell-based. More on the design: endogenously expressing BRD9 with HiBiT fusion tag via CRISPR; host or cells: 293T.166 (BRD9-HiBiT), also expressing LgBiT ectopically. The conditions noted are these: 293T.166 cells, 2.0 hours, class symbols, read-out: HiBiT-Degradation 293T.166 BRD9 2.0 hours (DC50). An outline of the steps:
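Luminescence from the Nano-Glo HiBiT lytic reagent quantified BRD9 loss after compounds (top 10 μM, half-log, 11 points, duplicates) were incubated 2 h at 37° C. with 10,000 293T.166 BRD9-HiBiT/LgBiT cells per well, with controls lacking compound or lacking reagent.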

As a reminder, the DC50 is the midpoint of the concentration-degradation curve.

For `COc1cc(-c2cn(C)c(=O)c(C)c2C)cc(F)c1CN1CCC(N2CCN(c3ccc(NC4CCC(=O)NC4=O)cc3F)CC2)C(F)(F)C1` (stereo not drawn) [Compound 191], the DC50 (Table 1) is under 100 nM. Still for that read-out and setting: as for `COc1cc(-c2cn(C)c(=O)c3cnccc23)cc(Cl)c1CN1CCC(N2CCN(c3ccc(NC4CCC(=O)NC4=O)cc3Cl)CC2)C(F)(F)C1` (stereo not drawn) [Compound 186], the figure is under 100 nM; as for `COc1cc(-c2cn(C)c(=O)c3[nH]ncc23)cc(OC)c1CN1CCc2c(CN3CCC(c4ccc(NC5CCC(=O)NC5=O)cc4)C(F)(F)C3)csc2C1` (stereo not drawn) [Compound 103], under 100 nM. The same measure, in the same setting: as for `COc1cc(-c2cn(C)c(=O)c3[nH]ncc23)cc(OC)c1CN1CCc2c(CN3CCC(c4ccc(NC5CCC(=O)NC5=O)cc4)CC3)cccc2C1` (stereo not drawn) [Compound 98], the figure is under 100 nM. For the molecule `COc1cc(-c2cn(C)c(=O)c3[nH]ncc23)cc(OC)c1CN1CCN(C(=O)CN2CCC(c3ccc(NC4CCC(=O)NC4=O)cc3)CC2)CC1` (single isomer, unassigned) [Compound 3], the DC50 (Table 1) was under 100 nM. Still for that read-out and setting: to `COc1cc(-c2cn(C)c(=O)c3[nH]ncc23)cc(F)c1CN1CCN(C(=O)CN2CCC(c3ccc(N(C)C4CCC(=O)NC4=O)cc3)CC2)CC1` (stereo not drawn) [Compound 35] belongs under 100 nM; to `COc1cc(-c2cn(C)c(=O)c3[nH]ncc23)cc(OC)c1CN1CCc2cc(N3CCC(c4ccc(NC5CCC(=O)NC5=O)cc4)CC3)ccc2C1` (stereo not drawn) [Compound 206, 3-[4-[1-[2-[[2,6-dimethoxy-4-(6-methyl-7-oxo-1H-pyrazolo[3,4-c]pyridin-4-yl)phenyl]methyl]-3,4-dihydro-1H-isoquinolin-6-yl]-4-piperidyl]anilino]piperidine-2,6-dione], under 100 nM. Same read-out and setting: as for `Cc1c(-c2ccc(C(=O)N3CCC(C4CCN(c5ccc(NC6CCC(=O)NC6=O)cc5F)CC4)CC3)c3[nH]ccc23)cn(C)c(=O)c1C` (stereo not drawn) [Compound 217], the figure is under 100 nM; as for `COc1cc(-c2cn(C)c(=O)c3[nH]ncc23)cc(OC)c1CN1CCN(C(=O)Cc2ccc(-c3ccc(NC4CCC(=O)NC4=O)cc3)cc2)CC1` (stereo not drawn) [Compound 167, 3-[4-[4-[2-[4-[[2,6-dimethoxy-4-(6-methyl-7-oxo-1H-pyrazolo[3,4-c]pyridin-4-yl)phenyl]methyl]piperazin-1-yl]-2-oxo-ethyl]phenyl]anilino]piperidine-2,6-dione], under 100 nM. Still for that read-out and setting: as for `COc1cc(-c2cn(C)c(=O)c3[nH]ncc23)cc(F)c1CC1CCN(CC(=O)N2CCC(c3ccc(NC4CCC(=O)NC4=O)cc3)CC2)CC1` (stereo not drawn) [Compound 156, 3-[4-[1-[2-[4-[[2-fluoro-6-methoxy-4-(6-methyl-7-oxo-1H-pyrazolo[3,4-c]pyridin-4-yl)phenyl]methyl]-1-piperidyl]acetyl]-4-piperidyl]anilino]piperidine-2,6-dione], the figure is under 100 nM; as for `COc1cc(-c2cn(C)c(=O)c3cnccc23)cc(F)c1C(=O)N1CCC(C2CCN(c3ccc(NC4CCC(=O)NC4=O)cc3F)CC2)CC1` (stereo not drawn) [Compound 215], under 100 nM; as for `COc1cc(-c2cn(C)c(=O)c3cnccc23)cc(OC)c1CN1CCN(C(=O)CN2CCC(c3ccc(NC4CCC(=O)NC4=O)cc3)CC2)CC1` (stereo not drawn) [Compound 15], under 100 nM. Consider `CN(C(=O)N1CCC(c2ccc(NC3CCC(=O)NC3=O)cc2)CC1)C1CCN(Cc2ccc(-c3cn(C)c(=O)c4ccccc34)cc2OC(F)(F)F)CC1` (stereo not drawn) [Compound 113], for which the DC50 (Table 1) is under 100 nM.

On to `COc1cc(-c2cn(C)c(=O)c3[nH]ncc23)cc(OC)c1CN1CCN(C(=O)CN2CCC(c3ccc(NC4CCC(=O)NC4=O)cc3C(F)F)CC2)CC1` (stereo not drawn) [Compound 11], for which, where the note is “Table 1”, the DC50 is under 100 nM. Take `COc1cc(-c2cn(C)c(=O)c3cnccc23)cc(Cl)c1CN1CCC(CCC2CCN(c3ccc(NC4CCC(=O)NC4=O)cc3C(F)(F)F)CC2)CC1` (stereo not drawn) [Compound 149]: the DC50 (Table 1) is under 100 nM. Turning to `COc1cc(-c2cn(C)c(=O)c3[nH]ncc23)cc(OC)c1CN1CCN(C(=O)CN2CCC(c3ccc(NC4CCC(=O)NC4=O)cc3F)CC2)CC1` (stereo not drawn) [Compound 7], the half-maximal degradation concentration (DC50) (Table 1) was under 100 nM.

As for `Cn1cc(-c2ccc(CN3CCc4c(cccc4CN4CCC(c5ccc(NC6CCC(=O)NC6=O)cc5)C(F)(F)C4)C3)c(OC(F)(F)F)c2)c2cn[nH]c2c1=O` (stereo not drawn) [Compound 101], the DC50 (Table 1) was under 100 nM. Same read-out and setting: to `COc1cc(-c2cn(C)c(=O)c3[nH]ncc23)cc(Cl)c1CN1CCC(F)(CCC2CCN(c3ccc(NC4CCC(=O)NC4=O)cc3F)CC2)CC1` (stereo not drawn) [Compound 151, 3-[4-[4-[2-[1-[[2-chloro-6-methoxy-4-(6-methyl-7-oxo-1H-pyrazolo[3,4-c]pyridin-4-yl)phenyl]methyl]-4-fluoro-4-piperidyl]ethyl]-1-piperidyl]-3-fluoro-anilino]piperidine-2,6-dione] belongs under 100 nM; to `COc1cc(-c2cn(C)c(=O)c3[nH]ncc23)cc(Cl)c1CN1CCC(N2CCN(c3ccc(NC4CCC(=O)NC4=O)cc3F)CC2)C(F)(F)C1` (stereo not drawn) [Compound 183], under 100 nM; to `COc1cc(-c2cn(C)c(=O)c3cnccc23)cc(Cl)c1CN1CCC(C2CCN(c3ccc(NC4CCC(=O)NC4=O)cc3C(F)(F)F)CC2)CC1` (stereo not drawn) [Compound 83, 3-[4-[4-[1-[[2-chloro-6-methoxy-4-(2-methyl-1-oxo-2,7-naphthyridin-4-yl)phenyl]methyl]-4-piperidyl]-1-piperidyl]-3-(trifluoromethyl)anilino]piperidine-2,6-dione], under 100 nM. `COc1cc(-c2cn(C)c(=O)c3cnccc23)cc(Cl)c1CN1C2CCC1CN(C(=O)CC1CCN(c3ccc(NC4CCC(=O)NC4=O)cc3F)CC1)C2` (stereo not drawn) [Compound 271]: the DC50 (Table 2) was under 100 nM.

`COc1cc(-c2cn(C)c(=O)c3cnccc23)cc(Cl)c1CN1CCC(N2CCN(c3ccc(OC4CCC(=O)NC4=O)cc3F)CC2)C(F)(F)C1` (stereo not drawn) [Compound 230, 3-[4-[4-[1-[[2-chloro-6-methoxy-4-(2-methyl-1-oxo-2,7-naphthyridin-4-yl)phenyl]methyl]-3,3-difluoro-4-piperidyl]piperazin-1-yl]-3-fluoro-phenoxy]piperidine-2,6-dione]: the DC50 (Table 1) was under 100 nM.

With `COc1cc(-c2cn(C)c(=O)c(C)c2C)cc(Cl)c1CN1CCC(F)(CCC2CCN(c3ccc(NC4CCC(=O)NC4=O)cc3Cl)CC2)CC1` (stereo not drawn) [Compound 263], the DC50 (Table 2) is under 100 nM. For `COc1cc(-c2cn(C)c(=O)c3cnccc23)cc(Cl)c1C(=O)N1CCC(N(C)C(=O)N2CCC(c3ccc(NC4CCC(=O)NC4=O)cc3F)CC2)CC1` (stereo not drawn) [Compound 142], the DC50 (Table 1) is under 100 nM.

Take `COc1cc(-c2cn(C)c(=O)c3[nH]ncc23)cc(Cl)c1CN1CCc2c(cccc2CN2CCC(c3ccc(NC4CCC(=O)NC4=O)cc3)C(F)(F)C2)C1` (stereo not drawn) [Compound 100]: the DC50 (Table 1) was under 100 nM.

`COc1cc(-c2cn(C)c(=O)c3[nH]ncc23)cc(F)c1CN1CCN(C(=O)CN2CCC(c3ccc(NC4CCC(=O)NC4=O)cc3)CC2)CC1` (stereo not drawn) [Compound 9]: the DC50 (Table 1) is under 100 nM. On the same count and under the same terms, as for `COc1cc(-c2cn(C)c(=O)c(C)c2C)cnc1CN1CCC(C2CCN(c3ccc(NC4CCC(=O)NC4=O)cc3F)CC2)CC1` (stereo not drawn) [Compound 82], the figure is under 100 nM. As for `COc1cc(-c2cn(C)c(=O)c3cnccc23)cc(Cl)c1CN1CCC(C2CCN(c3ccc(NC4CCC(=O)NC4=O)nc3)CC2)C(F)(F)C1` (stereo not drawn) [Compound 262], the DC50 (Table 2) was under 100 nM. On the same count and under the same terms, to `COc1cc(-c2cn(C)c(=O)c(C)c2C)cc(Cl)c1CN1CCC(C2CCN(c3ccc(NC4CCC(=O)NC4=O)cc3F)CC2)C(F)(F)C1` (single isomer, unassigned) [Compound 259] belongs under 100 nM. `COc1cc(-c2cn(C)c(=O)c3[nH]ncc23)cc(OC)c1CN1CCN(CC(=O)N2CCC(c3ccc(NC4CCC(=O)NC4=O)cc3)CC2)CC1` (stereo not drawn) [Compound 37, 3-[4-[1-[2-[4-[[2,6-dimethoxy-4-(6-methyl-7-oxo-1H-pyrazolo[3,4-c]pyridin-4-yl)phenyl]methyl]piperazin-1-yl]acetyl]-4-piperidyl]anilino]piperidine-2,6-dione]: where the note is “Table 1”, the DC50 is under 100 nM. For the molecule `COc1cc(-c2cn(C)c(=O)c3[nH]ncc23)cc(Cl)c1CN1CCC(CC(=O)N2CCC(c3ccc(NC4CCC(=O)NC4=O)cc3)C(F)(F)C2)CC1` (stereo not drawn) [Compound 45], under “Table 1”, the DC50 was under 100 nM.

In the case of `CC(c1ccc(-c2cn(C)c(=O)c3cnccc23)cc1OC(F)(F)F)N1CCC(C2CCN(c3ccc(NC4CCC(=O)NC4=O)cc3F)CC2)CC1` (stereo not drawn) [Compound 92], where the note is “Table 1”, the DC50 was under 100 nM. Consider `COc1cc(-c2cn(C)c(=O)c3cnccc23)cc(OC)c1CN1CCc2cc(C3CCN(c4ccc(NC5CCC(=O)NC5=O)cc4C(F)(F)F)CC3)ccc2C1` (stereo not drawn) [Compound 231, 3-[4-[4-[2-[[2,6-dimethoxy-4-(2-methyl-1-oxo-2,7-naphthyridin-4-yl)phenyl]methyl]-3,4-dihydro-1H-isoquinolin-6-yl]-1-piperidyl]-3-(trifluoromethyl)anilino]piperidine-2,6-dione], for which, under “Table 1”, the DC50 is under 100 nM.
